Reference: US10954193B2 (Vanderbilt University, priority 2013, dated 2021)

Target: recombinant Mcl-1 (residues 172-327) (Homo sapiens (Human), UniProt Q07820)
Experiment: Bak peptide binding assay, fluorescence polarization anisotropy competition (FITC-Bak), Mcl-1;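 further: displacement of labeled Bak peptide read by fluorescence anisotropy, 10-point threefold dilutions from 20 µM top dose in 5% DMSO, 90 min incubation at room temperature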
Conditions: Table 3, binned ranges; FITC-Bak peptide 10 nM, Mcl-1 14 nM; read-out: Ki for inhibition of Mcl-1
Experimental: Bak Peptide Binding Assay
Compound affinity was measured using a fluorescence polarization anisotropy competition assay. Anisotropy measurements were carried out in 384-well, black, flat-bottom plates (Greiner Bio-one, Monroe, N.C., USA). […] 10 nM FITC-Bak peptide and 14 nM recombinant Mcl-1 (residues 172-327) were added to assay buffer (3 mM dithiothreitol, 50 mM NaCl, 20 mM Tris, pH 7.5).
Compounds are diluted in DMSO in a 10-point, 3-fold serial dilution scheme. 2.5 uL compound is added to 47.5 uL of assay buffer containing FITC-Bak and protein, for a final DMSO concentration of 5% and a top concentration of 20 uM. […] The plate was mixed and incubated for 90 minutes at room temperature. Anisotropy is measured at excitation wavelength 480 nm and emission wavelength 535 nm using an EnVision Multi-label plate reader (PerkinElmer, Wellesley, Mass., USA).

recombinant Mcl-1 (residues 172-327), sequence (Q07820 172-327): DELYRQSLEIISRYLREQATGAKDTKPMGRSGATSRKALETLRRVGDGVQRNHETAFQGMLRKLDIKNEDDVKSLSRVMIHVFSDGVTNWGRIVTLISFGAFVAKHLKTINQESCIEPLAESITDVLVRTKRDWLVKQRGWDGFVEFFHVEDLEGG

| Ki | Compound |
| --- | --- |
| ≤ 100 nM | Cc1cc(OCCCc2c(C)n(CCC(=O)O)c3c(-c4c(C)nn(Cc5ccccn5)c4C)cccc23)cc(C)c1Cl [Example 105, 3-(3-(3-(4-chloro-3,5-dimethylphenoxy)propyl)-7-(3,5-dimethyl-1-(pyridin-2-ylmethyl)-1H-pyrazol-4-yl)-2-methyl-1H-indol-1-yl)propanoic acid] |
| ≤ 100 nM | Cc1cc(OCCCc2c(C)n(CCC(=O)O)c3c(-c4c(C)nn(CC5CCOC5)c4C)cccc23)cc(C)c1Cl (stereo not drawn) [Example 106, 3-(3-(3-(4-chloro-3,5-dimethylphenoxy)propyl)-7-(3,5-dimethyl-1-((tetrahydrofuran-3-yl)methyl)-1H-pyrazol-4-yl)-2-methyl-1H-indol-1-yl)propanoic acid] |
| 301 to 500 nM | Cc1cc(OCCCc2c(C)n(CCC(=O)O)c3c(-c4c(C)nn(CCN(C)C)c4C)cccc23)cc(C)c1Cl [Example 109, 3-(3-(3-(4-chloro-3,5-dimethylphenoxy)propyl)-7-(1-(2-(dimethylamino)ethyl)-3,5-dimethyl-1H-pyrazol-4-yl)-2-methyl-1H-indol-1-yl)propanoic acid] |
| 1000 to 9990 nM | Cc1cc(OCCCc2c(C)n(CCC(=O)O)c3c(-c4c(C)nn(Cc5ncccn5)c4C)cccc23)cc(C)c1Cl [Example 110, 3-(3-(3-(4-chloro-3,5-dimethylphenoxy)propyl)-7-(3,5-dimethyl-1-(pyrimidin-2-ylmethyl)-1H-pyrazol-4-yl)-2-methyl-1H-indol-1-yl)propanoic acid] |
| ≤ 100 nM | Cc1cc(OCCCc2c(C)n(Cc3cccc(C(=O)O)c3)c3c(-c4c(C)nn(Cc5ccccn5)c4C)cccc23)cc(C)c1Cl [Example 111, 3-((3-(3-(4-chloro-3,5-dimethylphenoxy)propyl)-7-(3,5-dimethyl-1-(pyridin-2-ylmethyl)-1H-pyrazol-4-yl)-2-methyl-1H-indol-1-yl)methyl)benzoic acid] |
| 501 to 999 nM | Cc1cc(OCCCc2c(C)n(Cc3cccc(C(=O)O)c3)c3c(-c4c(C)nn(Cc5cccnc5)c4C)cccc23)cc(C)c1Cl [Example 112, 3-((3-(3-(4-chloro-3,5-dimethylphenoxy)propyl)-7-(3,5-dimethyl-1-(pyridin-3-ylmethyl)-1H-pyrazol-4-yl)-2-methyl-1H-indol-1-yl)methyl)benzoic acid] |
| ≤ 100 nM | Cc1cc(OCCCc2c(C)n(CCC(=O)O)c3c(-c4c(C)nn(CCN5CCOCC5)c4C)c(Cl)ccc23)cc(C)c1Cl [Example 113, 3-(6-chloro-3-(3-(4-chloro-3,5-dimethylphenoxy)propyl)-7-(3,5-dimethyl-1-(2-morpholinoethyl)-1H-pyrazol-4-yl)-2-methyl-1H-indol-1-yl)propanoic acid] |
| ≤ 100 nM | Cc1cc(OCCCc2c(C)n(CC(=O)O)c3c(-c4c(C)nn(C)c4C)c(Cl)ccc23)cc(C)c1Cl [Example 114, 2-(6-chloro-3-(3-(4-chloro-3,5-dimethylphenoxy)propyl)-2-methyl-7-(1,3,5-trimethyl-1H-pyrazol-4-yl)-1H-indol-1-yl)acetic acid] |
| 101 to 299 nM | Cc1cc(OCCCc2c(C(F)(F)F)n(Cc3cccc(C(=O)O)c3)c3c(Br)cccc23)cc(C)c1Cl [Example 115, 3-((7-bromo-3-(3-(4-chloro-3,5-dimethylphenoxy)propyl)-2-(trifluoromethyl)-1H-indol-1-yl)methyl)benzoic acid] |
| 101 to 299 nM | Cc1cc(OCCCc2c(C(F)(F)F)n(Cc3ccc(C(=O)O)cc3)c3c(Br)cccc23)cc(C)c1Cl [Example 116, 4-((7-bromo-3-(3-(4-chloro-3,5-dimethylphenoxy)propyl)-2-(trifluoromethyl)-1H-indol-1-yl)methyl)benzoic acid] |
| ≤ 100 nM | Cc1cc(OCCCc2c(C(F)(F)F)n(CCc3ccc(C(=O)O)cc3)c3c(-c4c(C)nn(C)c4C)cccc23)cc(C)c1Cl [Example 118, 4-(2-(3-(3-(4-chloro-3,5-dimethylphenoxy)propyl)-2-(trifluoromethyl)-7-(1,3,5-trimethyl-1H-pyrazol-4-yl)-1H-indol-1-yl)ethyl)benzoic acid] |
| 1000 to 9990 nM | Cc1cc(OCCCc2c(C(F)(F)F)n(Cc3ccc(C(=O)O)cn3)c3c(Br)cccc23)cc(C)c1Cl [Example 119, 6-((7-bromo-3-(3-(4-chloro-3,5-dimethylphenoxy)propyl)-2-(trifluoromethyl)-1H-indol-1-yl)methyl)nicotinic acid] |
| ≤ 100 nM | Cc1cc(OCCCc2c(C(F)(F)F)n(CC(=O)O)c3c(-c4c(C)nn(C)c4C)cccc23)cc(C)c1Cl [Example 120, 2-(3-(3-(4-chloro-3,5-dimethylphenoxy)propyl)-2-(trifluoromethyl)-7-(1,3,5-trimethyl-1H-pyrazol-4-yl)-1H-indol-1-yl)acetic acid] |
| ≤ 100 nM | Cc1cc(OCCCc2c(C(F)(F)F)n(CC(=O)N3CCN(CC(=O)O)CC3)c3c(-c4c(C)nn(C)c4C)cccc23)cc(C)c1Cl [Example 121, 2-(4-(2-(3-(3-(4-chloro-3,5-dimethylphenoxy)propyl)-2-(trifluoromethyl)-7-(1,3,5-trimethyl-1H-pyrazol-4-yl)-1H-indol-1-yl)acetyl)piperazin-1-yl)acetic acid] |
| ≤ 100 nM | Cc1cc(OCCCc2c(C(F)(F)F)n(Cc3cccc(C(=O)O)c3)c3c(-c4c(C)nn(C)c4C)c(Cl)ccc23)cc(C)c1Cl [Example 122, 3-((6-chloro-3-(3-(4-chloro-3,5-dimethylphenoxy)propyl)-2-(trifluoromethyl)-7-(1,3,5-trimethyl-1H-pyrazol-4-yl)-1H-indol-1-yl)methyl)benzoic acid] |
| ≤ 100 nM | Cc1cc(OCCCc2c(C(F)(F)F)n(Cc3cccc(C(=O)O)c3)c3c(-c4c(C)nn(C)c4C)cccc23)cc(C)c1Cl [Example 123, 3-((3-(3-(4-chloro-3,5-dimethylphenoxy)propyl)-2-(trifluoromethyl)-7-(1,3,5-trimethyl-1H-pyrazol-4-yl)-1H-indol-1-yl)methyl)benzoic acid] |
| ≤ 100 nM | Cc1cc(OCCCc2c(C(F)(F)F)n(Cc3ccc(C(=O)O)cc3)c3c(-c4c(C)nn(C)c4C)cccc23)cc(C)c1Cl [Example 124, 4-((3-(3-(4-chloro-3,5-dimethylphenoxy)propyl)-2-(trifluoromethyl)-7-(1,3,5-trimethyl-1H-pyrazol-4-yl)-1H-indol-1-yl)methyl)benzoic acid] |
| ≤ 100 nM | Cc1cc(OCCCc2c(C)n(Cc3cccc(C(=O)NS(C)(=O)=O)c3)c3c(-c4c(C)nn(C)c4C)cccc23)cc(C)c1Cl [Example 125, 3-((3-(3-(4-chloro-3,5-dimethylphenoxy)propyl)-2-methyl-7-(1,3,5-trimethyl-1H-pyrazol-4-yl)-1H-indol-1-yl)methyl)-N-(methylsulfonyl)benzamide] |
| ≤ 100 nM | Cc1cc(OCCCc2c(C)n(Cc3cccc(C(=O)NS(=O)(=O)c4ccccn4)c3)c3c(-c4c(C)nn(C)c4C)cccc23)cc(C)c1Cl [Example 126, 3-((3-(3-(4-chloro-3,5-dimethylphenoxy)propyl)-2-methyl-7-(1,3,5-trimethyl-1H-pyrazol-4-yl)-1H-indol-1-yl)methyl)-N-(pyridin-2-ylsulfonyl)benzamide] |
| ≤ 100 nM | Cc1cc(OCCCc2c(C)n(Cc3cccc(C(=O)NS(=O)(=O)c4ccccc4)c3)c3c(-c4c(C)nn(C)c4C)cccc23)cc(C)c1Cl [Example 127, 3-((3-(3-(4-chloro-3,5-dimethylphenoxy)propyl)-2-methyl-7-(1,3,5-trimethyl-1H-pyrazol-4-yl)-1H-indol-1-yl)methyl)-N-(phenylsulfonyl)benzamide] |
| 101 to 299 nM | Cc1cc(OCCCc2c(C)n(Cc3cccc(C(=O)NS(=O)(=O)c4ccncc4)c3)c3c(-c4c(C)nn(C)c4C)cccc23)cc(C)c1Cl [Example 128, 3-((3-(3-(4-chloro-3,5-dimethylphenoxy)propyl)-2-methyl-7-(1,3,5-trimethyl-1H-pyrazol-4-yl)-1H-indol-1-yl)methyl)-N-(pyridin-4-ylsulfonyl)benzamide] |
| 101 to 299 nM | Cc1cc(OCCCc2c(C)n(Cc3cccc(C(=O)NS(=O)(=O)c4cccnc4)c3)c3c(-c4c(C)nn(C)c4C)cccc23)cc(C)c1Cl [Example 129, 3-((3-(3-(4-chloro-3,5-dimethylphenoxy)propyl)-2-methyl-7-(1,3,5-trimethyl-1H-pyrazol-4-yl)-1H-indol-1-yl)methyl)-N-(pyridin-3-ylsulfonyl)benzamide] |
| ≤ 100 nM | Cc1cc(OCCCc2c(C)n(Cc3ccc(C(=O)NS(=O)(=O)c4ccccc4)cc3)c3c(-c4c(C)nn(C)c4C)cccc23)cc(C)c1Cl [Example 130, 4-((3-(3-(4-chloro-3,5-dimethylphenoxy)propyl)-2-methyl-7-(1,3,5-trimethyl-1H-pyrazol-4-yl)-1H-indol-1-yl)methyl)-N-(phenylsulfonyl)benzamide] |
| ≤ 100 nM | Cc1cc(OCCCc2c(C)n(Cc3ccc(C(=O)NS(C)(=O)=O)cc3)c3c(-c4c(C)nn(C)c4C)cccc23)cc(C)c1Cl [Example 131, 4-((3-(3-(4-chloro-3,5-dimethylphenoxy)propyl)-2-methyl-7-(1,3,5-trimethyl-1H-pyrazol-4-yl)-1H-indol-1-yl)methyl)-N-(methylsulfonyl)benzamide] |
| ≤ 100 nM | Cc1cc(OCCCc2c(C)n(Cc3ccc(C(=O)NS(=O)(=O)c4ccccn4)cc3)c3c(-c4c(C)nn(C)c4C)cccc23)cc(C)c1Cl [Example 132, 4-((3-(3-(4-chloro-3,5-dimethylphenoxy)propyl)-2-methyl-7-(1,3,5-trimethyl-1H-pyrazol-4-yl)-1H-indol-1-yl)methyl)-N-(pyridin-2-ylsulfonyl)benzamide] |
| ≤ 100 nM | Cc1cc(OCCCc2c(C)n(CCC(=O)O)c3c(-c4c(C)nn(Cc5cccnc5)c4C)cccc23)cc(C)c1Cl [Example 133, 3-(3-(3-(4-chloro-3,5-dimethylphenoxy)propyl)-7-(3,5-dimethyl-1-(pyridin-3-ylmethyl)-1H-pyrazol-4-yl)-2-methyl-1H-indol-1-yl)propanoic acid] |
| ≤ 100 nM | Cc1cc(OCCCc2c(C)n(Cc3ccc(C(=O)O)cn3)c3c(-c4c(C)nn(C)c4C)c(Cl)ccc23)cc(C)c1Cl [Example 134, 6-((6-chloro-3-(3-(4-chloro-3,5-dimethylphenoxy)propyl)-2-methyl-7-(1,3,5-trimethyl-1H-pyrazol-4-yl)-1H-indol-1-yl)methyl)nicotinic acid] |
